# Paper PMC7605555 (bioRxiv, 2020)
# Where “and” joins values, the source holds several entries; their conditions need not be identical. Identical values can stand only once.
# Assays:
# [1] = system: Vero E6 cells; test: Cytotoxicity, WST-1 cell proliferation assay; type: cell-based, African green monkey; conditions: for concentration at which cytotoxic: Vero E6 cells
# [2] = system: SARS-CoV-2; type: cell-based
# [3] = target: SARS-CoV-2 main protease Mpro (Severe acute respiratory syndrome coronavirus 2, UniProt P0DTD1); test: cell-based; conditions: IC50 in inhibiting Mpro
# [4] = system: SARS-CoV-2; test: Viral particle inactivation / time-of-addition, plaque assay on Vero E6 cells; type: cell-based
# [5] = system: SARS-CoV-2 viral RNA; test: Viral RNA quantification by qRT-PCR in Vero cells and supernatant; type: cell-based; conditions: 5 μM
# [6] = system: SARS-CoV-2; type: cell-based; conditions: virus treated with 5 μM for 1 hour, MOI = 100, Vero E6
# [7] = system: SARS-CoV-2; test: Plaque assay on A549^ACE2 cells with ethacridine-treated virus; type: cell-based; conditions: 5 uM, 1 hr pre-incubation
# [8] = system: SARS-CoV-2; type: cell-based; conditions: 5 μM, 48 hours, anti-N and anti-S staining
# [9] = 20 mg/kg, i.p. injection; cited from earlier work
# [10] = rat, mice and rabbits; cited from earlier work
compound,measurement,setting,value
verteporfin,concentration at which cytotoxic,[1],5 to 13 µM
O=c1c2ccccc2[se]n1-c1ccccc1 [ebselen],reduction in viral titer,[2],~ 2 log
"C[C@@H](NCCCc1cccc(C(F)(F)F)c1)c1cccc2ccccc12 [Cinacalcet, cinacalcet]",reduction in viral titer,[2],~ 1 log
"CC(=O)[C@@]1(O)CC[C@H]2[C@@H]3CCC4=CC(=O)CC[C@]4(C)[C@H]3CC[C@@]21C [Hydroxyprogesterone, hydroxyprogesterone]",reduction in viral titer,[2],~ 1 log
"CCOc1ccc2nc3cc(N)ccc3c(N)c2c1 [Ethacridine, ethacridine]",IC50,[3],~3.54 µM and ~3.5 µM
same,reduction in viral titer,[2],5 – 6 log
same,cell toxicity,[1]; Vero E6 (Fig. 3e),very little cell toxicity
same,"reduction in viral titer, DMSO + Eth.","[4]; 5 μM, drug added after viral entry",3 – 4 logs
same,"reduction in viral titer, Eth. + Eth.","[4]; 5 μM, drug present continuously prior to plaque assay, versus DMSO + DMSO",3 – 4 logs
same,"reduction in viral titer, Eth. + Eth.","[4]; 5 μM, plaque assay",2400 fold
same,"reduction in infectivity, Eth. [1 hr]","[4]; virus pre-incubated with drug 1 hr, plaque assay without drug",3 – 4 logs
same,"change of viral RNA (vRNA) levels, DMSO + Eth.","[5]; drug added after binding and entry, supernatant and cells",no change
same,"reduction in vRNA copies, Eth. + Eth.","[5]; drug present continuously, supernatant and within the cells",4 – 5 fold
same,detectable anti-N and anti-S fluorescence on cells,[6],dramatic reduction
same,infectivity of drug-treated virus on A549^ACE2 cells,[7],dramatic decrease in infectivity
same,proportion of infected primary nasal cells,[8],dramatically decreased
same,toxicity in mice,[9],no toxicity
same,toxicity in animal models,[10],non-toxic
"CCC(CC)COC(=O)[C@H](C)N[P@](=O)(OC[C@H]1O[C@@](C#N)(c2ccc3c(N)ncnn23)[C@H](O)[C@@H]1O)Oc1ccccc1 [Remdesivir, remdesivir]",reduction in viral titer,[2],~ 4 log
"COc1ccc2c(O[C@@H]3C[C@H]4C(=O)N[C@]5(C(=O)NS(=O)(=O)C6CC6)C[C@H]5/C=C\CCCCN(C)C(=O)[C@@H]4C3)cc(-c3nc(C(C)C)cs3)nc2c1C [Simeprevir, simeprevir]",reduction in viral titer,[2],~ 4 log
ivermectin,concentration at which cytotoxic,[1],5 to 13 µM
